The values below come from ChEMBL document CHEMBL1158602, “Dihydro-pyrano[2,3-b]pyridines and tetrahydro-1,8-naphthyridines as CB1 receptor inverse agonists: synthesis, SAR and biological evaluation” (Bioorg Med Chem Lett, 2010).

Assay [1] has as its target Cannabinoid receptor 1 (Homo sapiens, UniProt P21554). Briefly: Binding affinity to human CB1 receptor.
Assay [2] deals with Cannabinoid receptor 2 (Homo sapiens, UniProt P34972). The experiment in a line: Binding affinity to human CB2 receptor.

The term IC50 denotes the concentration needed to halve the response being measured. Read a low IC50 as greater potency in that assay.

Sequence of Cannabinoid receptor 1 (P21554 whole entry): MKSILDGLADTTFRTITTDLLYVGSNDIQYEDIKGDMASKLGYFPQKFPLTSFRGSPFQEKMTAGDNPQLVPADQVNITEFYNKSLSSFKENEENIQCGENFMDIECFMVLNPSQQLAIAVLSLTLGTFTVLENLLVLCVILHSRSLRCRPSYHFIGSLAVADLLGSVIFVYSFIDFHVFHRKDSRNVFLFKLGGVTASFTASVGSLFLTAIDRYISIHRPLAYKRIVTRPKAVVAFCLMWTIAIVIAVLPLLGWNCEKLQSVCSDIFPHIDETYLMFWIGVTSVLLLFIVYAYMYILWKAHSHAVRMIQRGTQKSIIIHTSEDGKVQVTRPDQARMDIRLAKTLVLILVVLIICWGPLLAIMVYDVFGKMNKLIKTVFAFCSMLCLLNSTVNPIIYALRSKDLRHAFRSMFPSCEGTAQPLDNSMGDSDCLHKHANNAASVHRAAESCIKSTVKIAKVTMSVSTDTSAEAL
Sequence of Cannabinoid receptor 2 (P34972 whole entry): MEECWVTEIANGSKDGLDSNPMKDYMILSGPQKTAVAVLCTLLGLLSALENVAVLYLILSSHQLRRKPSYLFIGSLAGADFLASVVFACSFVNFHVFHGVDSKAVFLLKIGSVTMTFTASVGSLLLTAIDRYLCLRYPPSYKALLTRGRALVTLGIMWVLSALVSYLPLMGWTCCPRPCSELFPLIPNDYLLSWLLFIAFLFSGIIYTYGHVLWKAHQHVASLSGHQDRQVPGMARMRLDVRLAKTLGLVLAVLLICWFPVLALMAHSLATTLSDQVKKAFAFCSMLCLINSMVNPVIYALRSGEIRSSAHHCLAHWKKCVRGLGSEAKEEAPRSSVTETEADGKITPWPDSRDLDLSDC

As for `CC1(C)CC(=O)c2cc(-c3ccc(Cl)cc3)c(-c3ccc(Cl)cc3Cl)nc2O1`, the half-inhibitory concentration (IC50) in assay [1] turned out to be 47 nM; in assay [2], 1300 nM.
The matching figures for `O=C1CC2(CCCC2)Oc2nc(-c3ccccc3Cl)c(-c3ccc(Cl)cc3)cc21`: 23 nM and 3000 nM.
Consider `O=C1CC2(CCCCC2)Oc2nc(-c3ccccc3Cl)c(-c3ccc(Cl)cc3)cc21`, for which the figures for the IC50 in assay [1] and in assay [2] were 8.2 nM and 8300 nM, respectively.
The matching figures for `O=C1CC2(CCSCC2)Oc2nc(-c3ccccc3Cl)c(-c3ccc(Cl)cc3)cc21`: 4.9 nM and 8000 nM.
For the compound `CC1(C)CC(=O)c2cc(-c3ccc(Cl)cc3)c(-c3ccccc3Cl)nc2O1`, the IC50 in assay [1] was found to be 120 nM; in assay [2], 2300 nM.
For `CCC1(CC)CC(=O)c2cc(-c3ccc(Cl)cc3)c(-c3ccccc3Cl)nc2O1`, the figures for the IC50 in assay [1] and in assay [2] were 15 nM and 4200 nM, respectively.
In the case of `O=C1CC2(CCS(=O)(=O)CC2)Oc2nc(-c3ccccc3Cl)c(-c3ccc(Cl)cc3)cc21`, the results for the concentration for half-maximal inhibition (IC50) in assay [1] and in assay [2] were 15 nM and 4100 nM, respectively.
On to `CN1CCC2(CC1)CC(=O)c1cc(-c3ccc(Cl)cc3)c(-c3ccccc3Cl)nc1O2`, for which the results for the half-inhibitory concentration (IC50) in assay [1] and in assay [2] were 790 nM and above 2000 nM, respectively.
Taken in the same sequence, the figures for `CC1(C)CC(C)(O)c2cc(-c3ccc(Cl)cc3)c(-c3ccc(Cl)cc3Cl)nc2O1` (racemic) were 80 nM and 2920 nM.
Taken in the same sequence, the figures for `CC1CC(=O)c2cc(-c3ccc(Cl)cc3)c(-c3ccccc3Cl)nc2O1` (racemic) were 21 nM and 6300 nM.
Taken in the same sequence, the figures for `O=C1CC(c2cccc(F)c2)Oc2nc(-c3ccccc3Cl)c(-c3ccc(Cl)cc3)cc21` (racemic) were 1.7 nM and above 2000 nM.
For `COC1CC(C)(C)Oc2nc(-c3ccc(Cl)cc3Cl)c(-c3ccc(Cl)cc3)cc21` (racemic), the IC50 in assay [1] stood at 19 nM; in assay [2], 3790 nM.
Consider `CC1(C)CC(N)c2cc(-c3ccc(Cl)cc3)c(-c3ccc(Cl)cc3Cl)nc2O1` (racemic), for which the IC50 was 110 nM in assay [1] and 7760 nM in assay [2].
In the case of `CC1(C)CC(O)c2cc(-c3ccc(Cl)cc3)c(-c3ccc(Cl)cc3Cl)nc2O1` (racemic), the figures for the half-maximal inhibitory concentration (IC50) in assay [1] and in assay [2] were 130 nM and 4950 nM, respectively.
As for `CC(C)C1CC(=O)c2cc(-c3ccc(Cl)cc3)c(-c3ccccc3Cl)nc2O1` (racemic), the half-inhibitory concentration (IC50) was 3.2 nM in assay [1] and 3300 nM in assay [2].
Regarding `CC(C)(C)C1CC(=O)c2cc(-c3ccc(Cl)cc3)c(-c3ccccc3Cl)nc2O1` (racemic), the 50% inhibitory concentration (IC50) in assay [1] worked out at 1.9 nM; in assay [2], 3400 nM.
Regarding `CC(=O)NC1CC2(CCCCC2)Oc2nc(-c3ccccc3Cl)c(-c3ccc(Cl)cc3)cc21` (racemic), the values for the half-inhibitory concentration (IC50) in assay [1] and in assay [2] were 1.3 nM and 3900 nM, respectively.
As to `CC1(C)CC(NC(=O)CO)c2cc(-c3ccc(Cl)cc3)c(-c3ccccc3Cl)nc2O1` (single isomer, unassigned) [N-(7-(2-CHLOROPHENYL)-6-(4-CHLOROPHENYL)-2,2-DIMETHYL-3,4-DIHYDRO-2H-PYRANO[2,3-B]PYRIDIN-4-YL)-2-HYDROXYACETAMIDE (ENANTIOMERIC MIX)], the half-maximal inhibitory concentration (IC50) in assay [1] stood at 360 nM; in assay [2] it was 10100 nM.
`C[C@@H](O)C(=O)NC1CC2(CCCCC2)Oc2nc(-c3ccccc3Cl)c(-c3ccc(Cl)cc3)cc21` (single isomer, unassigned; enantiomer 1): the figures for the concentration for half-maximal inhibition (IC50) in assay [1] and in assay [2] were 0.2 nM and 3600 nM, respectively.
On to `CC1(C)CC(C(N)=O)c2cc(-c3ccc(Cl)cc3)c(-c3ccc(Cl)cc3Cl)nc2O1` (single isomer, unassigned; enantiomer 1) [6-(4-CHLOROPHENYL)-7-(2,4-DICHLOROPHENYL)-2,2-DIMETHYL-3,4-DIHYDRO-2H-PYRANO[2,3-B]PYRIDINE-4-CARBOXAMIDE (ENANTIOMERIC MIX)], for which the figures for the half-inhibitory concentration (IC50) in assay [1] and in assay [2] were 97 nM and 2480 nM, respectively.
As to `CC(C)(CO)NC(=O)C1CC(C)(C)Oc2nc(-c3ccc(Cl)cc3Cl)c(-c3ccc(Cl)cc3)cc21` (single isomer, unassigned; enantiomer 1) [6-(4-CHLOROPHENYL)-7-(2,4-DICHLOROPHENYL)-N-(1-HYDROXY-2-METHYLPROPAN-2-YL)-2,2-DIMETHYL-3,4-DIHYDRO-2H-PYRANO[2,3-B]PYRIDINE-4-CARBOXAMIDE (ENANTIOMERIC MIX)], the IC50 in assay [1] is 14 nM; in assay [2], 5150 nM.
Take `CC1(C)CC(NC(=O)CO)c2cc(-c3ccc(Cl)cc3)c(-c3ccc(Cl)cc3Cl)nc2O1` (single isomer, unassigned; enantiomer 1) [N-(6-(4-CHLOROPHENYL)-7-(2,4-DICHLOROPHENYL)-2,2-DIMETHYL-3,4-DIHYDRO-2H-PYRANO[2,3-B]PYRIDIN-4-YL)-2-HYDROXYACETAMIDE (ENANTIOMERIC MIX)]: the half-maximal inhibitory concentration (IC50) in assay [1] is 1.7 nM; in assay [2] it was 4780 nM.
Regarding `CC1(C)CC(NC(=O)C(C)(C)CO)c2cc(-c3ccc(Cl)cc3)c(-c3ccc(Cl)cc3Cl)nc2O1` (single isomer, unassigned; enantiomer 1) [N-(6-(4-CHLOROPHENYL)-7-(2,4-DICHLOROPHENYL)-2,2-DIMETHYL-3,4-DIHYDRO-2H-PYRANO[2,3-B]PYRIDIN-4-YL)-3-HYDROXY-2,2-DIMETHYLPROPANAMIDE (ENANTIOMERIC MIX)], the 50% inhibitory concentration (IC50) worked out at 2.1 nM in assay [1] and 570 nM in assay [2].
`CC1(C)CC(NC(=O)CO)c2cc(-c3ccc(Cl)cc3)c(-c3ccccc3Cl)nc2O1` (single isomer, unassigned; enantiomer 1) [N-(7-(2-CHLOROPHENYL)-6-(4-CHLOROPHENYL)-2,2-DIMETHYL-3,4-DIHYDRO-2H-PYRANO[2,3-B]PYRIDIN-4-YL)-2-HYDROXYACETAMIDE (ENANTIOMERIC MIX)]: the results for the IC50 in assay [1] and in assay [2] were 46 nM and above 2000 nM, respectively.
As for `CC1(C)CC(C(N)=O)c2cc(-c3ccc(Cl)cc3)c(-c3ccc(Cl)cc3Cl)nc2O1` (single isomer, unassigned; enantiomer 2) [6-(4-CHLOROPHENYL)-7-(2,4-DICHLOROPHENYL)-2,2-DIMETHYL-3,4-DIHYDRO-2H-PYRANO[2,3-B]PYRIDINE-4-CARBOXAMIDE (ENANTIOMERIC MIX)], the IC50 in assay [1] is 220 nM; in assay [2] it was above 2000 nM.
Turning to `CC(C)(CO)NC(=O)C1CC(C)(C)Oc2nc(-c3ccc(Cl)cc3Cl)c(-c3ccc(Cl)cc3)cc21` (single isomer, unassigned; enantiomer 2) [6-(4-CHLOROPHENYL)-7-(2,4-DICHLOROPHENYL)-N-(1-HYDROXY-2-METHYLPROPAN-2-YL)-2,2-DIMETHYL-3,4-DIHYDRO-2H-PYRANO[2,3-B]PYRIDINE-4-CARBOXAMIDE (ENANTIOMERIC MIX)], the IC50 in assay [1] is 150 nM; in assay [2], 7450 nM.
`CC1(C)CC(NC(=O)CO)c2cc(-c3ccc(Cl)cc3)c(-c3ccc(Cl)cc3Cl)nc2O1` (single isomer, unassigned; enantiomer 2) [N-(6-(4-CHLOROPHENYL)-7-(2,4-DICHLOROPHENYL)-2,2-DIMETHYL-3,4-DIHYDRO-2H-PYRANO[2,3-B]PYRIDIN-4-YL)-2-HYDROXYACETAMIDE (ENANTIOMERIC MIX)]: the IC50 amounted to 670 nM in assay [1] and 6610 nM in assay [2].
